Among the data in US4659721A, “Alkanol derivatives, and pharmaceutical preparation containing these compounds” (Ludwig Heumann & Co. GmbH, priority 1984, dated 1987) are ED50 and half life values, retold here.

Data set [1] has as its target T1, histamine-H2 receptors (Rattus norvegicus, UniProt P25102).
T1 construct: from tissue; host or cells: rat stomach, perfused (in vivo Ghosh-Schild preparation)
Kind of data set: Gosh-Schild rat (Stimulator: histamine). The class given is in vivo. The settings on record: iv, i.V., read-out: ID50 (the source's name). The source says:
These compounds also antagonize the histamine action on the frequency of contraction of the isolated right atrium of the guinea-pig but have no effect on histamine induced contractions of isolated, smooth gastrointestinal muscle when these are produced by […].
Experimental model: Gosh-Schild rat

For data set [2] the following is noted: therapeutic use, several daily doses of tablets with dose units of 160 to 300 mg; cited from earlier work.

T1 sequence (P25102 whole entry, the tested form may be a part): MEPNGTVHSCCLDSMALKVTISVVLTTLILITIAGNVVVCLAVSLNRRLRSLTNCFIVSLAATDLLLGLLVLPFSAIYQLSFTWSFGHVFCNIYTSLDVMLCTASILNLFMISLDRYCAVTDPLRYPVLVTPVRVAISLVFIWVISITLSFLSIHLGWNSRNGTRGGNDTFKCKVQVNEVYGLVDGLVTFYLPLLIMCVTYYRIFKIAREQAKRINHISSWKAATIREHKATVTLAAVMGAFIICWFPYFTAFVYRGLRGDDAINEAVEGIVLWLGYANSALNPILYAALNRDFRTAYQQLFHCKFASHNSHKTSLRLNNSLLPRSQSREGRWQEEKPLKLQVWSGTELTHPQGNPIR

With `CN/C(=N/CCSCc1nc[nH]c1C)NC#N` [Cimetidine], in data set [1], the ED50 was 1.4 µmol/kg. Also, in data set [2], the half life result is on record as “relatively short”. `CNC(=C[N+](=O)[O-])NCCSCc1ccc(CN(C)C)o1` [ranitidine]: the half life result in data set [2] is listed as “relatively short”. With `Nc1n[s+]([O-])nc1NCC(O)COCc1cccc(CN2CCCCC2)c1` (stereo not shown) [Example 1, 3-[2-Hydroxy-3-[3-(1-piperidylmethyl)-benzyloxy]propylamino]-4-amino-1,2,5-thiadiazole-1-oxide], the ED50 in data set [1] amounted to 0.075 µmol/kg.
